pIC50: −log10 of the molar value.
target: T1, CCR2 (Homo sapiens, UniProt P41597); experiment: Binding assay: inhibition of 125I-MCP-1 binding to THP-1 cells; design: CCR2 is also expressed in the human monocytic cell line THP-1; endogenous in cells; host or cells: THP-1 (human monocytic cell line), whole cells; settings: THP-1 cells, 0.1 nM 125I-MCP-1, 1 hr at room temperature; read-out: Inhibition of 125I-MCP-1 binding to THP-1 cells, IC50
T1 sequence (P41597 1-360 isoform P41597-2): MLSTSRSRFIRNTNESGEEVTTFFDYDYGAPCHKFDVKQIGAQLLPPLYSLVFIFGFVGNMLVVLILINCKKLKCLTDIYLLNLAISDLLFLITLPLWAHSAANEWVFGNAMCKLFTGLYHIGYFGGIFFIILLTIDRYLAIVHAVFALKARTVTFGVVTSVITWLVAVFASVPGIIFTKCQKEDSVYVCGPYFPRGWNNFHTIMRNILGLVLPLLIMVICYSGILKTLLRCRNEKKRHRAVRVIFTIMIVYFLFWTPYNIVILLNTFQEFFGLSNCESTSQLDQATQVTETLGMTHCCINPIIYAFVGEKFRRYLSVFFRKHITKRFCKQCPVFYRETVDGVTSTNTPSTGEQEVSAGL
Experimental: Antagonism of the CCR2 receptor is determined by a binding assay using the human monocytic cell line THP-1. Cells are suspended in assay buffer (RPMI+1% BSA+25 mM HEPES) at 3×10^6 cells/ml and an aliquot (180 μl) added to a 0.5 ml siliconized Eppendorf tube. […] After incubation for 1 hr at room temperature, the cell suspension is centrifuged through oil and the cell pellets counted to quantitate cell-bound ligand. Nonspecific (NS) binding of radioligand is determined by the addition of 100 nM cold MCP-1. Control binding is determined by the addition of buffer without compound.

Compound | pIC50
CC(=O)C1=C(O)C(=O)N(c2ccc(Br)cc2F)C1C1CCCCC1 (racemic) [Compound 142, 4-acetyl-1-(4-bromo-2-fluorophenyl)-5-cyclohexyl-3-hydroxy-1,5-dihydro-2H-pyrrol-2-one] | ≥ 5.30
CC(=O)C1=C(O)C(=O)N(c2ccc(C)cc2)C1C1CC2C=CC1C2 (centres unmarked) [Compound 79, 4-acetyl-5-bicyclo[2.2.1]hept-5-en-2-yl-3-hydroxy-1-(4-methylphenyl)-1,5-dihydro-2H-pyrrol-2-one] | ≥ 5.30
CC(=O)C1=C(O)C(=O)N(c2ccc(Cl)c([N+](=O)[O-])c2)C1C1CCCCC1 (racemic) [Compound 66, 4-acetyl-1-(4-chloro-3-nitrophenyl)-5-cyclohexyl-3-hydroxy-1,5-dihydro-2H-pyrrol-2-one] | ≥ 5.30
CC(=O)C1=C(O)C(=O)N(c2ccc(C(C)C)cc2)C1C1CCCCC1 (racemic) [Compound 52, 4-acetyl-5-cyclohexyl-3-hydroxy-1-(4-isopropylphenyl)-1,5-dihydro-2H-pyrrol-2-one] | ≥ 5.30
CC(=O)C1=C(O)C(=O)N(c2ccc(C)cc2)C1C1C=CCCC1 (centres unmarked) [Compound 50, 4-acetyl-5-(cyclohex-2-en-1-yl)-3-hydroxy-1-(4-methylphenyl)-1,5-dihydro-2H-pyrrol-2-one] | ≥ 5.30
CC(=O)C1=C(O)C(=O)N(c2ccc(Br)cc2)C1c1ccc(Br)cc1 (racemic) [Compound 9, 4-acetyl-1,5-bis(4-bromophenyl)-3-hydroxy-1,5-dihydro-2H-pyrrol-2-one] | ≥ 5.30
CC(=O)C1=C(O)C(=O)N(c2c(F)cc(Cl)cc2F)C1C1CCCCC1 (racemic) [Compound 120, 4-acetyl-1-(4-chloro-2,6-difluorophenyl)-5-cyclohexyl-3-hydroxy-1,5-dihydro-2H-pyrrol-2-one] | ≥ 5.30
CC(=O)C1=C(O)C(=O)N(c2ccc(C)cc2)C1C12CC3CC(CC(C3)C1)C2 (racemic) [Compound 58, 4-acetyl-5-(1-adamantyl)-3-hydroxy-1-(4-methylphenyl)-1,5-dihydro-2H-pyrrol-2-one] | ≥ 5.30
CNC(=O)C1=C(O)C(=O)N(c2ccc(C)cc2)C1C1CCCCC1 (racemic) [Compound 126, 2-cyclohexyl-4-hydroxy-N-methyl-1-(4-methylphenyl)-5-oxo-2,5-dihydro-1H-pyrrole-3-carboxamide] | ≥ 5.30
COc1ccc(N2C(=O)C(O)=C(C(C)=O)C2C2CCCCC2)cc1 (racemic) [Compound 14, 4-acetyl-5-cyclohexyl-3-hydroxy-1-(4-methoxyphenyl)-1,5-dihydro-2H-pyrrol-2-one] | ≥ 5.30
Cc1ccc(N2C(=O)C(O)=C(C(=O)C(C)(C)C)C2C2CCCCC2)cc1 (racemic) [Compound 41, 5-cyclohexyl-4-(2,2-dimethylpropanoyl)-3-hydroxy-1-(4-methylphenyl)-1,5-dihydro-2H-pyrrol-2-one] | ≥ 5.30
CC(=O)C1=C(O)C(=O)N(c2ccccc2)C1C1CCCCC1 (racemic) [Compound 23, 4-acetyl-5-cyclohexyl-3-hydroxy-1-phenyl-1,5-dihydro-2H-pyrrol-2-one] | ≥ 5.30
Cc1ccc(N2C(=O)C(O)=C(C(N)=O)C2C2CCCCC2)cc1 (racemic) [Compound 131, 2-cyclohexyl-4-hydroxy-1-(4-methylphenyl)-5-oxo-2,5-dihydro-1H-pyrrole-3-carboxamide] | ≥ 5.30
CC(=O)C1=C(O)C(=O)N(c2cccc(Br)c2)C1C1CCCCC1 (racemic) [Compound 44, 4-acetyl-1-(3-bromophenyl)-5-cyclohexyl-3-hydroxy-1,5-dihydro-2H-pyrrol-2-one] | ≥ 5.30
CC(=O)C1=C(O)C(=O)N(c2ccc(F)cc2)C1C1CCCCC1 (racemic) [Compound 25, 4-acetyl-5-cyclohexyl-1-(4-fluorophenyl)-3-hydroxy-1,5-dihydro-2H-pyrrol-2-one] | ≥ 5.30
CC(=O)C1=C(O)C(=O)N(c2ccc(Cl)cc2F)[C@@H]1C1CCCC1 [Compound 129, (R)-4-acetyl-1-(4-chloro-2-fluorophenyl)-5-cyclopentyl-3-hydroxy-1,5-dihydro-2H-pyrrol-2-one] | ≥ 5.30
CC(=O)C1=C(N)C(=O)N(c2ccc(C)cc2)C1C1CCCCC1 (racemic) [Compound 61, 4-acetyl-3-amino-5-cyclohexyl-1-(4-methylphenyl)-1,5-dihydro-2H-pyrrol-2-one] | ≥ 5.30
C=C1CCC(C2C(C(C)=O)=C(O)C(=O)N2c2ccc(Cl)cc2)CC1 (racemic) [Compound 127, 4-acetyl-1-(4-chlorophenyl)-3-hydroxy-5-(4-methylenecyclohexyl)-1,5-dihydro-2H-pyrrol-2-one] | ≥ 5.30
CC(=O)C1=C(O)C(=O)N(c2ccc(C)cc2)C1C1CCCCCC1 (racemic) [Compound 68, 4-acetyl-5-cycloheptyl-3-hydroxy-1-(4-methylphenyl)-1,5-dihydro-2H-pyrrol-2-one] | ≥ 5.30
CC(=O)C1=C(O)C(=O)N(c2ccc(Cl)s2)C1C1CCCCC1 (racemic) [Compound 170, 4-acetyl-1-(5-chloro-2-thienyl)-5-cyclohexyl-3-hydroxy-1,5-dihydro-2H-pyrrol-2-one] | ≥ 5.30
CC(=O)C1=C(O)C(=O)N(c2ccc(Cl)c(Cl)c2)C1C1CCCCC1 (racemic) [Compound 48, 4-acetyl-5-cyclohexyl-1-(3,4-dichlorophenyl)-3-hydroxy-1,5-dihydro-2H-pyrrol-2-one] | ≥ 5.30
CC(=O)C1=C(O)C(=O)N(c2ccc(F)cc2)[C@@H]1C1CCCCC1 [Compound 139, (R)-4-acetyl-5-cyclohexyl-1-(4-fluorophenyl)-3-hydroxy-1,5-dihydro-2H-pyrrol-2-one] | ≥ 5.30
CC(=O)C1=C(O)C(=O)N(c2ccc(F)cc2)[C@@H]1C1CCCC1 [Compound 137, (R)-4-acetyl-5-cyclopentyl-1-(4-fluorophenyl)-3-hydroxy-1,5-dihydro-2H-pyrrol-2-one] | ≥ 5.30

The next lines start with the values.

pIC50 | Compound
≥ 5.30 | CC(=O)C1=C(O)C(=O)N(c2ccc(C)c(Cl)c2)C1C1CCCCC1 (racemic) [Compound 59, 4-acetyl-1-(3-chloro-4-methylphenyl)-5-cyclohexyl-3-hydroxy-1,5-dihydro-2H-pyrrol-2-one]
≥ 5.30 | CCCC1C(C(C)=O)=C(O)C(=O)N1c1ccc(C)c(C)c1 (racemic) [Compound 74, 4-acetyl-1-(3,4-dimethylphenyl)-3-hydroxy-5-propyl-1,5-dihydro-2H-pyrrol-2-one]
≥ 5.30 | CC(=O)C1=C(O)C(=O)N(c2ccc(C)cc2)C1CC(C)(C)C (racemic) [Compound 78, 4-acetyl-3-hydroxy-1-(4-methylphenyl)-5-neopentyl-1,5-dihydro-2H-pyrrol-2-one]
≥ 5.30 | CC(=O)C1=C(O)C(=O)N(c2ccc(C)cc2)C1CC(C)C (racemic) [Compound 40, 4-acetyl-3-hydroxy-5-isobutyl-1-(4-methylphenyl)-1,5-dihydro-2H-pyrrol-2-one]
≥ 5.30 | CCc1cc(N2C(=O)C(O)=C(C(C)=O)C2C2CCCCC2)ccc1Cl (racemic) [Compound 70, 4-acetyl-1-(4-chloro-3-ethylphenyl)-5-cyclohexyl-3-hydroxy-1,5-dihydro-2H-pyrrol-2-one]
≥ 5.30 | CC(=O)C1=C(O)C(=O)N(c2ccc(C)c(C)c2)C1C1CCCCC1 (racemic) [Compound 65, 4-acetyl-5-cyclohexyl-1-(3,4-dimethylphenyl)-3-hydroxy-1,5-dihydro-2H-pyrrol-2-one]
≥ 5.30 | CC(=O)C1=C(O)C(=O)N(c2ccc(C)c(C)c2)C1CC(C)(C)C (racemic) [Compound 116, 4-acetyl-1-(3,4-dimethylphenyl)-3-hydroxy-5-neopentyl-1,5-dihydro-2H-pyrrol-2-one]
≥ 5.30 | CCC(CC)C1C(C(C)=O)=C(O)C(=O)N1c1ccc(C)cc1 (racemic) [Compound 13, 4-acetyl-5-(1-ethylpropyl)-3-hydroxy-1-(4-methylphenyl)-1,5-dihydro-2H-pyrrol-2-one]
≥ 5.30 | CC(=O)C1=C(O)C(=O)N(c2ccc(C)c(Br)c2)C1C1CCCCC1 (racemic) [Compound 73, 4-acetyl-1-(3-bromo-4-methylphenyl)-5-cyclohexyl-3-hydroxy-1,5-dihydro-2H-pyrrol-2-one]
≥ 5.30 | CC(=O)C1=C(O)C(=O)N(c2ccc(C)c(F)c2)C1C1CCCCC1 (racemic) [Compound 47, 4-acetyl-5-cyclohexyl-1-(3-fluoro-4-methylphenyl)-3-hydroxy-1,5-dihydro-2H-pyrrol-2-one]
≥ 5.30 | CCC(C)C(C)C1C(C(C)=O)=C(O)C(=O)N1c1ccc(C)cc1 (centres unmarked) [Compound 19, 4-acetyl-5-(1,2-dimethylbutyl)-3-hydroxy-1-(4-methylphenyl)-1,5-dihydro-2H-pyrrol-2-one]
≥ 5.30 | CCCC1C(C(C)=O)=C(O)C(=O)N1c1ccc(C)c(Cl)c1 (racemic) [Compound 76, 4-acetyl-1-(3-chloro-4-methylphenyl)-3-hydroxy-5-propyl-1,5-dihydro-2H-pyrrol-2-one]

Source: patent US6727275B2, “Pyrrolidinone derivatives” (UCB, S.A./N.V., priority 2001, dated 2004)
